Experiments:
Format in all cases: biochemical
JAK1 = target: T1, JAK1 (Homo sapiens, UniProt P23458); assay: JAK1 inhibition (Table 4); settings: read-out: JAK1 Ki
T1 construct: made in house; host or cells: SF9 insect cells (baculovirus)

JAK2 = target: T2, JAK2 (Homo sapiens, UniProt O60674); assay: JAK2 inhibition (Table 4); settings: read-out: JAK2 Ki
T2 construct: made in house; host or cells: SF9 insect cells (baculovirus)

JAK3 = target: T3, JAK3 (Homo sapiens, UniProt P52333); assay: JAK3 inhibition (Table 4); settings: read-out: JAK3 Ki
T3 construct: made in house; host or cells: SF9 insect cells (baculovirus)

TYK2 = target: T4, TYK2 (Homo sapiens, UniProt P29597); assay: TYK2 inhibition (Table 4)
T4 construct: made in house; host or cells: SF9 insect cells (baculovirus)
T4 sequence (P29597 873-1187): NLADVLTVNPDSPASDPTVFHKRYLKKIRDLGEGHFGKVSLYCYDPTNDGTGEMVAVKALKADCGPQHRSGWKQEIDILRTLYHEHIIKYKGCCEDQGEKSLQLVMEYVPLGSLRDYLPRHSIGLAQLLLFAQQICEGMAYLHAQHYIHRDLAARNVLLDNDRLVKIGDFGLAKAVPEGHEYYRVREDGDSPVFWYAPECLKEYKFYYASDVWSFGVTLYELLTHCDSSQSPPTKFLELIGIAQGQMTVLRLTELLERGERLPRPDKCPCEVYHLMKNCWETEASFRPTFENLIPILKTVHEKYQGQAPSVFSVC

T1 sequence (P23458 852-1154): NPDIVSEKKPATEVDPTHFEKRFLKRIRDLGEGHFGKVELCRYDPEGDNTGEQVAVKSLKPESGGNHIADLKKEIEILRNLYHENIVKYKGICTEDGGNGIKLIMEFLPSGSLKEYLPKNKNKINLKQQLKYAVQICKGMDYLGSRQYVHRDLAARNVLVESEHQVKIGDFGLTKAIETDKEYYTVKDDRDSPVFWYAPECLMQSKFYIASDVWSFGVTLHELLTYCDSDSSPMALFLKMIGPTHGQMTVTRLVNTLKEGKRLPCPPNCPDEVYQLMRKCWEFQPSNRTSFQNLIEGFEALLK
T2 sequence (O60674 812-1132): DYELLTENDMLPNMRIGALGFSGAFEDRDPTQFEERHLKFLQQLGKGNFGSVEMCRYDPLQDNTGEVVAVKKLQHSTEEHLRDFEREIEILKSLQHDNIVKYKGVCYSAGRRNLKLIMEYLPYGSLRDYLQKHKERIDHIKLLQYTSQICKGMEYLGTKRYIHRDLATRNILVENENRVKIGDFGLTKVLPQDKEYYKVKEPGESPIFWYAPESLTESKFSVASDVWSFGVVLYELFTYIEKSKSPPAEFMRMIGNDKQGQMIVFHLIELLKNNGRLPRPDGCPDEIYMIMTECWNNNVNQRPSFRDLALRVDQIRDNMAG
T3 sequence (P52333 783-1124): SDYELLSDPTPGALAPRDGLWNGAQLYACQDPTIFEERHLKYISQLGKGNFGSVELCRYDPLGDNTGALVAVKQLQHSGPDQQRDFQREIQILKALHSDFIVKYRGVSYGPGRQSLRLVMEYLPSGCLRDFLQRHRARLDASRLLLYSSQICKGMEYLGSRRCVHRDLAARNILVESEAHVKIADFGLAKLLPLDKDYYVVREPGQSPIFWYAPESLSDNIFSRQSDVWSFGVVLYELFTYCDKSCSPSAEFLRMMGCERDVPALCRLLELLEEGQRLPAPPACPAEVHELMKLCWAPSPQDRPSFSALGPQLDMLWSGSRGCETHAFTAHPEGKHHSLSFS

Row | Structure (SMILES) | Ki (JAK1) | Ki (JAK2) | Ki (JAK3) | Ki (TYK2)
1 | CC1(n2cnc3cnc4[nH]ccc4c32)CCN(Cc2cncs2)CC1 [Example 755, 1-(4-Methyl-1-thiazol-5-ylmethyl-piperidin-4-yl)-1,6-dihydro-1,3,5,6-tetraaza-as-indacene] | 7.15 nM | 33.7 nM | 93.1 nM | 211 nM
2 | CC1(n2cnc3cnc4[nH]ccc4c32)CCN(Cc2ccnc(C#N)c2)CC1 [Example 756, 4-[4-Methyl-4-(6H-1,3,5,6-tetraaza-as-indacen-1-yl)-piperidin-1-ylmethyl]-pyridine-2-carbonitrile] | 36.1 nM | 259 nM | 617 nM | 1120 nM
3 | CC(O)c1nc2cnc3[nH]ccc3c2n1C1CCN(CCC(F)(F)F)CC1 (stereo not shown) [Example 759, 1-{1-[1-(3,3,3-Trifluoro-propyl)-piperidin-4-yl]-1,6-dihydro-1,3,5,6-tetraaza-as-indacen-2-yl}-ethanol] | 7.13 nM | 118 nM | 37.2 nM | 109 nM
4 | OCc1nc2cnc3[nH]ccc3c2n1C1CCN(CC(F)(F)F)CC1 [Example 761, {1-[1-(2,2,2-Trifluoro-ethyl)-piperidin-4-yl]-1,6-dihydro-1,3,5,6-tetraaza-as-indacen-2-yl}-methanol] | 1.59 nM | 8.5 nM | 22.6 nM | 10 nM
5 | Cc1nc2cnc3[nH]ccc3c2n1C1CCN(CC(F)F)CC1 [Example 762, 1-[1-(2,2-Difluoro-ethyl)-piperidin-4-yl]-2-methyl-1,6-dihydro-1,3,5,6-tetraaza-as-indacene] | 0.89 nM | 2.65 nM | 5.51 nM | 4.88 nM
6 | Cc1nc2cnc3[nH]ccc3c2n1C1CCN(C(=O)NCC(F)(F)F)CC1 [Example 764, 4-(2-Methyl-6H-1,3,5,6-tetraaza-as-indacen-1-yl)-piperidine-1-carboxylic acid (2,2,2-trifluoro-ethyl)-amide] | 88.1 nM | 441 nM | 609 nM | 859 nM
7 | Cc1nc2cnc3[nH]ccc3c2n1C1CCN(C(=O)NCCC(F)(F)F)CC1 [Example 765, 4-(2-Methyl-6H-1,3,5,6-tetraaza-as-indacen-1-yl)-piperidine-1-carboxylic acid (3,3,3-trifluoro-propyl)-amide] | 275 nM | 872 nM | 2210 nM | 2840 nM
8 | Cc1nc2cnc3[nH]ccc3c2n1C1CCC(N2CCC(C#N)CC2)CC1 (stereo not shown) [Example 768, 1-[4-(2-Methyl-6H-1,3,5,6-tetraaza-as-indacen-1-yl)-cyclohexyl]-piperidine-4-carbonitrile] | 1.77 nM | 6.47 nM | 85.9 nM | 23.4 nM
9 | CNC(=O)OC1CCC(n2cnc3cnc4[nH]ccc4c32)CC1 (stereo not shown) [Example 769, Methyl-carbamic acid 4-(6H-1,3,5,6-tetraaza-as-indacen-1-yl)-cyclohexyl ester] | 9.6 nM | 16.6 nM | 104 nM | 62.5 nM
10 | COCCNc1nc2cnc3[nH]ccc3c2n1C1CCN(CCC#N)CC1 [Example 770, 3-{4-[2-(2-Methoxy-ethylamino)-6H-1,3,5,6-tetraaza-as-indacen-1-yl]-piperidin-1-yl}-propionitrile] | 8.8 nM | 32.7 nM | 42.7 nM | 207 nM
11 | CNc1nc2cnc3[nH]ccc3c2n1C1CCN(Cc2cccc(C#N)c2)CC1 [Example 772, 3-[4-(2-Methylamino-6H-1,3,56-tetraaza-as-indacen-1-yl)-piperidine-1-yl-methyl]-benzonitrile] | 1.36 nM | 5.7 nM | 43.5 nM | 320 nM
12 | C[C@@H](O)c1nc2cnc3[nH]ccc3c2n1C1CCC(C#N)CC1 (stereo partly drawn) [Example 776, 4-[2-((R)-1-Hydroxy-ethyl)-6H-1,3,5,6-tetraaza-as-indacen-1-yl]-cyclohexanecarbonitrile] | 0.99 nM | 10.4 nM | 1.88 nM | 0.73 nM
13 | N#CC1CCC(n2c(CO)nc3cnc4[nH]ccc4c32)CC1 (stereo not shown) [Example 777, 4-(2-Hydroxymethyl-6H-1,3,5,6-tetraaza-as-indacen-1-yl)-cyclohexanecarbonitrile] | 1.3 nM | 6.86 nM | 1.04 nM | 0.64 nM
14 | C[C@@H](O)c1nc2cnc3[nH]ccc3c2n1[C@@H]1CCCN(C(=O)C2CCOCC2)C1 [Example 783, {(R)-3-[2-((R)-1-Hydroxy-ethyl)-6H-1,3,5,6-tetraaza-as-indacen-1-yl]-piperidin-1-yl}-(tetrahydro-pyran-4-yl)-methanone] | 137 nM | 1460 nM | 2660 nM | 1790 nM
15 | C[C@@H](O)c1nc2cnc3[nH]ccc3c2n1[C@@H]1CCCN(C(=O)CC(F)(F)F)C1 [Example 785, 3,3,3-Trifluoro-1-{(R)-3-[2-((R)-1-hydroxy-ethyl)-6H-1,3,5,6-tetraaza-as-indacen-1-yl]-piperidin-1-yl}-propan-1-one] | 31.9 nM | 373 nM | 566 nM | 278 nM
16 | CC(O)c1nc2cnc3[nH]ccc3c2n1C1CCCN(C(=O)C2CCOC2)C1 (stereo not shown) [Example 786, {3-[2-(1-Hydroxy-ethyl)-6H-1,3,5,6-tetraaza-as-indacen-1-yl]-piperidin-1-yl}-(tetrahydro-furan-3-yl)-methanone] | 52.5 nM | 596 nM | 1120 nM | 599 nM

More lines, in order of falling Ki (JAK1), values ahead:

Row | Ki (JAK1) | Ki (JAK2) | Ki (JAK3) | Ki (TYK2) | Structure (SMILES)
17 | 286 nM | 1470 nM | 2970 nM | 3040 nM | C[C@H](O)c1nc2cnc3[nH]ccc3c2n1[C@@H]1CCCN(C(=O)CC(F)(F)F)C1 [Example 782, 3,3,3-Trifluoro-1-{(R)-3-[2-((S)-1-hydroxy-ethyl)-6H-1,3,5,6-tetraaza-as-indacen-1-yl]-piperidin-1-yl}-propan-1-one]
18 | 40.8 nM | 205 nM | 598 nM | 1010 nM | Cc1nc2cnc3[nH]ccc3c2n1C1(C)CCN(Cc2ccnc(C#N)c2)CC1 [Example 758, 4-[4-Methyl-4-(2-methyl-6H-1,3,5,6-tetraaza-as-indacen-1-yl)-piperidin-1-ylmethyl]-pyridine-2-carbonitrile]
19 | 40.7 nM | 82.7 nM | 242 nM | 141 nM | CNc1nc2cnc3[nH]ccc3c2n1C1CCN(S(C)(=O)=O)CC1 [Example 774, [1-(1-Methanesulfonyl-piperidin-4-yl) 1,6-dihydro-1,3,5,6-tetraaza-as-indacen-1-yl]-methyl-amine]
20 | 12.5 nM | 42.2 nM | 278 nM | 223 nM | COCCN(C)C(=O)NC1CCC(n2cnc3cnc4[nH]ccc4c32)CC1 (stereo not shown) [Example 763, 1-(2-Methoxy-ethyl)-1-methyl-3-[4-(6H-1,3,5,6-tetraaza-as-indacen-1-yl)-cyclohexyl]-urea]
21 | 12.2 nM | 81.4 nM | 126 nM | 149 nM | CNc1nc2cnc3[nH]ccc3c2n1C1CCCOC1 (stereo not shown) [Example 773, Methyl-[1-(tetrahydro-pyran-3-yl)-1,6-dihydro-1,3,5,6-tetraaza-as-indacen-2-yl]-amine]
22 | 4.87 nM | 73.8 nM | 233 nM | 39 nM | C[C@@H](O)c1nc2cnc3[nH]ccc3c2n1C1CCC(n2cncn2)CC1 (stereo partly drawn) [Example 779, (R)-1-[1-(4-[1,2,4]triazol-1-yl-cyclohexyl)-1,6-dihydro-1,3,5,6-tetraaza-as-indacen-2-yl]-ethanol]
23 | 3.46 nM | 23 nM | 21.7 nM | 25.4 nM | OCc1nc2cnc3[nH]ccc3c2n1C1CCN(CCC(F)(F)F)CC1 [Example 760, {1-[1-(3,3,3-Trifluoro-propyl)-piperidin-4-yl]-1,6-dihydro-1,3,5,6-tetraaza-as-indacen-2-yl}-methanol]
24 | 2.81 nM | 10.7 nM | 155 nM | 36.9 nM | Cc1nc2cnc3[nH]ccc3c2n1C1CCC(N2CCC(F)(F)CC2)CC1 (stereo not shown) [Example 767, 1-[4-(4,4-Difluoro-piperidin-1-yl)-cyclohexyl]-2-methyl-1,6-dihydro-1,3,5,6-tetraaza-as-indacene]
25 | 2.06 nM | 10 nM | 82.8 nM | 33.8 nM | CCS(=O)(=O)N1CCC(C)(n2cnc3cnc4[nH]ccc4c32)CC1 [Example 757, 1-(1-Ethanesulfonyl-4-methyl-piperidin-4-yl)-1,6-dihydro-1,3,5,6-tetraaza-as-indacene]
26 | 2.06 nM | 6.62 nM | 19.1 nM | 27.8 nM | CNc1nc2cnc3[nH]ccc3c2n1C1CCN(CCC#N)CC1 [Example 771, 3-[4-(2-Methylamino-6H-1,3,5,6 tetraaza-asindacen-1-yl)-piperidin-1-yl]-propionitrile]
27 | 0.97 nM | 3.07 nM | 68.5 nM | 21.1 nM | O=S1(=O)CCN(C2CCC(n3cnc4cnc5[nH]ccc5c43)CC2)CC1 (stereo not shown) [Example 766, 1-[4-(1,1-Dioxo-thiomorpholin-4-yl)-cyclohexyl]-1,6-dihydro-1,3,5,6-tetraaza-as-indacene]
28 | 0.65 nM | 13.2 nM | 42.4 nM | 6.89 nM | C[C@@H](O)c1nc2cnc3[nH]ccc3c2n1C1CCC(CCS(C)(=O)=O)CC1 (stereo partly drawn) [Example 778, (R)-1-{1-[4-(2-methanesulfonyl-ethyl)-cyclohexyl]-1,6-dihydro-1,3,5,6-tetraaza-as-indacen-2-yl}-ethanol]
